Laboratory results taken from paper PMC3827683 (Journal of the American Chemical Society, 2013).

Tests used:
Test in all cases: direct UV assay of deamination
Format in all cases: biochemical
Details in all cases: 20 mM HEPES pH 7.5, 30 °C
Avi5431 [1] = target: T1, Avi5431 (Gillisella ampelina, UniProt B9K107)
T1 sequence (B9K107 1-466): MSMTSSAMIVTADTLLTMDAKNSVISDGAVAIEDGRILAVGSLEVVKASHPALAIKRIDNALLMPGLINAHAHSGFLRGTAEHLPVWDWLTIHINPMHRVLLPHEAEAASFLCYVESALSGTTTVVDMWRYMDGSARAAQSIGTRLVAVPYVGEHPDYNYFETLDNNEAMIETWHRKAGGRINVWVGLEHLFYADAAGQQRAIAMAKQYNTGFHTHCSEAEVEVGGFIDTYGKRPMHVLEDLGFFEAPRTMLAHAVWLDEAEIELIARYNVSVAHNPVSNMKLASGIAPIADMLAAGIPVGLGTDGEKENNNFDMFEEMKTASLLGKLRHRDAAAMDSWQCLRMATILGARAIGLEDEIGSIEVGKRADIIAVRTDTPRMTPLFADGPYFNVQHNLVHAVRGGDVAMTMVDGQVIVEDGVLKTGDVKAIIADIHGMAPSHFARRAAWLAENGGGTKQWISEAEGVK

Tvn0515 = target: T2, Tvn0515 (Thermoplasma volcanium, UniProt Q97BE1)
T2 sequence (Q97BE1 1-418): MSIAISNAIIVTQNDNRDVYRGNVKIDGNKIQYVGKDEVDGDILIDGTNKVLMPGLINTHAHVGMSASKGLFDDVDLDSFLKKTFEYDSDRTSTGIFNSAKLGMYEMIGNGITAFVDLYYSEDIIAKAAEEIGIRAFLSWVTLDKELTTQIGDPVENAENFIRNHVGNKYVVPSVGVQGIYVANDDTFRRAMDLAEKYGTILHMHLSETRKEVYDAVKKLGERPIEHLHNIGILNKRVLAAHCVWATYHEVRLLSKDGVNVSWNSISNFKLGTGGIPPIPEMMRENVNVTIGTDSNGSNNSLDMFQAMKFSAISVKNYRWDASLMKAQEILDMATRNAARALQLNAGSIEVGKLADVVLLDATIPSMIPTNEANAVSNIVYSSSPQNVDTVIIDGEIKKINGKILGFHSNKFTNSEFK

Avi5431 [2] = target: T1, Avi5431; remark: listed apart in the source

## Nc1ncnc2[nH]c(=O)[nH]c12 [8-oxoadenine]
Avi5431 [1]
  direct UV assay of deamination (272 nm): Avi5431 deaminated two adenine related compounds, 8-oxoadenine and 2-oxoadenine

## Nc1ncnc2c1ncn2[C@@H]1O[C@H](CSCC[C@H](N)C(=O)O)[C@@H](O)[C@H]1O [SAH]
Tvn0515
  Km: Tvn0515 (sg-11) deaminates only SAH

## Nc1nc(O)nc2[nH]cnc12 [2-oxoadenine]
Avi5431 [2]
  direct UV assay of deamination (294 nm): Avi5431 deaminated two adenine related compounds, 8-oxoadenine and 2-oxoadenine
